This note sets out measurements from patent US9388136B2, “Tert-butyl N-[2-{4-[6-amino-5-(2,4-difluorobenzoyl)-2-oxopyridin-1(2H)-yl]-3,5-difluorophenyl}ethyl]-L-alaninate or a salt, hydrate or solvate thereof” (Chroma Therapeutics Ltd., priority 2012, dated 2016).

Like-named read-outs stand apart in the source and are kept apart here.

Series [1] concerns THP-1 cells. Put plainly: LPS-stimulation of THP-1 cells, TNF-α levels by ELISA. The class given is cell-based. The following applies: Homo sapiens, THP-1; LPS 1 μg/ml, 6 hrs; read-out: C—ester TNF-alpha inhibition (THP-1 cells), IC50. How it is done: THP-1 cells were plated in 100 μl at a density of 4×10^4 cells/well in V-bottomed 96 well tissue culture treated plates and incubated at 37° C. in 5% CO2 for 16 hrs. 2 hrs after the addition of the inhibitor in 100 μl of tissue culture media, the cells were stimulated with LPS (E coli strain 005:B5, Sigma) at a final concentration of 1 μg/ml and incubated at 37° C. in 5% CO2 for 6 hrs. TNF-α levels were measured from cell-free supernatants by sandwich ELISA (R&D Systems #QTA00B).
For orientation: In an ELISA, binding on a coated surface is turned into a signal by an enzyme label.

A short description of series [2]: Plasma exposure in mice. The class given is in vivo. The following applies: mouse, po 10 mg/kg, male CD1 mice. How it is done:
The compounds were formulated in 8% DMSO, 92% 11.25% hydroxypropyl-β-cyclodextrin in water using the following procedure: the compounds were fully dissolved in 100% DMSO and then the hydroxypropyl-β-cyclodextrin solution added. The fine precipitate formed was re-dissolved by the addition of aqueous HCl and the pH adjusted to 4 with aqueous sodium hydroxide.
Each compound was administered orally at 10 mg/kg, in a total dose volume of 5 ml/kg, to male CD1 mice ([…]). Three mice were used for each time point. Blood samples were taken at the following time points: 5, 15, 30, 60, 120, 240 and 360 minutes, by terminal cardiac puncture, under halothane/isofluorane anaesthesia. Blood samples were collected into pre-chilled tubes containing NaF/EDTA and mixed. Samples were spun at 7-7.5×g for 2 minutes. The plasma was aspirated and frozen.
Plasma samples were prepared by precipitation of protein using three volumes of acetonitrile containing the internal standard. The supernatants were analysed by LCMS (Sciex API 3000, HP1100 binary pump, CTC PAL). The chromatography was based on an Acentis C8 (50×2.1 mm) column and a mobile phase of 5-95% acetonitrile in water/0.1% formic acid.
Exposure (AUC) was calculated from the plasma concentration versus time profile using PK Solutions 2.0 (Summit Research Services, Montrose, Colo.).

Series [3] concerns the target p38 MAP Kinase a (Homo sapiens (Human), UniProt Q16539). The experiment in a line: p38 MAP kinase enzyme assay (radiometric filter-binding). The class given is biochemical. How it is done:
The ability of compounds to inhibit p38 MAP a Kinase activity was measured in an assay performed by Upstate (Dundee UK). In a final reaction volume of 25 μL, p38 MAP Kinase a (5-10 mU) is incubated with 25 mM Tris pH 7.5, 0.002 mMEGTA, 0.33 mg/mL myelin basic protein, 10 mM MgAcetate and [g-33p-ATP] (specific activity approx. 500 cpm/pmol, concentration as required). The reaction is initiated by the addition of the MgATP mix. After incubation for 40 minutes at room temperature, the reaction is stopped by the addition of 5 μL of a 3% phosphoric acid solution. 10 μL of the reaction is then spotted onto a P30 filtermat and washed three times for 5 minutes in 75 mM phosphoric acid and once in methanol prior to drying and scintillation counting.
Duplicate data points are generated from a 1/3 log dilution series of a stock solution in DMSO. Nine dilutions steps are made from a top concentration of 10 μM, and a ‘no compound’ blank is included. The standard radiometric filter-binding assay is performed at an ATP concentration at, or close to, the Km. Data from scintillation counts are collected and subjected to free-fit analysis by Prism software.

Series [4] deals with human whole blood. The experiment in a line: LPS-stimulation of human whole blood, TNF-α levels by ELISA. The class given is cell-based. The following applies: Homo sapiens; LPS 100 ng/ml, 6 hrs; read-out: D—ester TNF-alpha inhibition (human whole blood), IC50. How it is done:
Whole blood was taken by venous puncture using heparinised vacutainers (Becton Dickinson) and diluted in an equal volume of RPMI1640 tissue culture media (Sigma). 100 μl was plated in V-bottomed 96 well tissue culture treated plates. 2 hrs after the addition of the inhibitor in 100 μl of RPMI1640 media, the blood was stimulated with LPS (E coli strain 005:B5, Sigma) at a final concentration of 100 ng/ml and incubated at 37° C. in 5% CO2 for 6 hrs. TNF-α levels were measured from cell-free supernatants by sandwich ELISA (R&D Systems #QTA00B).

[5] abbreviates: corresponding acid (hydrolysis product of the named ester) tested, read-out: B—acid enzyme assay (p38 kinase A (invitrogen)), IC50.
[6] abbreviates: ester tested, read-out: A—ester enzyme assay (p38 kinase A (invitrogen)), IC50.

p38 MAP Kinase a, sequence (Q16539 whole entry): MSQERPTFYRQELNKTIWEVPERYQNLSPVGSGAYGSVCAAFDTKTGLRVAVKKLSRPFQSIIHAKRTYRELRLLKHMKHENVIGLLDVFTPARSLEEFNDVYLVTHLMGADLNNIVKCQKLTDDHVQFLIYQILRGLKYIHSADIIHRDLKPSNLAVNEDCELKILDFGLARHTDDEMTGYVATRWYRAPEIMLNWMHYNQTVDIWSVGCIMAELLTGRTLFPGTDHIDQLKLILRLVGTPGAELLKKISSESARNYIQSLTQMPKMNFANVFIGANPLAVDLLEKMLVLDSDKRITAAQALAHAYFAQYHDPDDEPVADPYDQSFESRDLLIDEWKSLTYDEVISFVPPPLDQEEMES

For `CC(C)C[C@H](NCCc1cc(F)c(-n2c(N)c(C(=O)c3ccc(F)cc3F)ccc2=O)c(F)c1)C(=O)OC1CCCC1` [cyclopentyl N-(2-{4-[6-amino-5-(2,4-difluoro-benzoyl)-2-oxopyridin-1(2H)-yl]-3,5-difluoro-phenyl}ethyl)-L-leucinate], the IC50 (as a rule, the concentration that inhibits the measured activity by half) is 0.5 nM in series [1], 1 nM in series [3] (setting [5]), 231 nM in series [3] (setting [6]) and 54 nM in series [4]. Further, the area under the curve AUC(0-t) (usually the area under the concentration-time curve up to a stated or last time point) in series [2] was determined as 14 ng·h/mL.

In the case of `C[C@H](NCCc1cc(F)c(-n2c(N)c(C(=O)c3ccc(F)cc3F)ccc2=O)c(F)c1)C(=O)OC(C)(C)C` [tert-Butyl N-(2-{4-[6-amino-5-(2,4-difluorobenzoyl)-2-oxopyridin-1(2H)-yl]-3,5-difluorophenyl}ethyl)-L-alaninate], the IC50 in series [1] turned out to be 1.6 nM; in series [3] (setting [5]), 1 nM; in series [3] (setting [6]), 12 nM; in series [4] it was 26 nM. Also, the exposure AUC(0-t) in series [2] is 102 ng·h/mL.

On to `CC(C)C[C@H](NCCc1cc(F)c(-n2c(N)c(C(=O)c3ccc(F)cc3F)ccc2=O)c(F)c1)C(=O)OC(C)(C)C` [tert-butyl N-(2-{4-[6-amino-5-(2,4-difluoro-benzoyl)-2-oxopyridin-1(2H)-yl]-3,5-difluorophenyl}ethyl)-L-leucinate], for which the IC50 came to 3 nM in series [1], 1 nM in series [3] (setting [5]), 120 nM in series [3] (setting [6]) and 191 nM in series [4]. In addition, in series [2], the AUC(0-t) turned out to be 75 ng·h/mL.

`C[C@H](NCCc1ccc(-n2c(N)c(C(=O)c3ccc(F)cc3F)ccc2=O)cc1)C(=O)OC(C)(C)C` [tert-butyl N-[2-(4-{6-amino-5-[(2,4-difluoro-phenyl)carbonyl]-2-oxopyridin-1(2H)-yl}phenyl)ethyl]-L-alaninate]: the half-inhibitory concentration (IC50) is 2.8 nM in series [1], 58 nM in series [3] (setting [5]), 58 nM in series [3] (setting [6]) and 195 nM in series [4].

With `CC(C)C[C@H](NCCc1ccc(-n2c(N)c(C(=O)c3ccc(F)cc3F)ccc2=O)cc1)C(=O)OC(C)(C)C` [tert-Butyl N-[2-(4-{6-amino-5-[(2,4-difluoro-phenyl)carbonyl]-2-oxopyridin-1(2H)-yl}phenyl)ethyl]-L-leucinate], the half-inhibitory concentration (IC50) in series [1] came to 2.4 nM; in series [3] (setting [5]) it was 58 nM; in series [3] (setting [6]) it was 330 nM; in series [4] it was 638 nM.

As to `CC(C)C[C@H](NCCCCCOc1cc(F)c(-n2c(N)c(C(=O)c3ccc(F)cc3F)ccc2=O)c(F)c1)C(=O)OC(C)(C)C` [tert-Butyl N-(5-{4-[6-amino-5-(2,4-difluoro-benzoyl)-2-oxopyridin-1(2H)-yl]-3,5-difluorophenoxy}pentyl)-L-leucinate], the 50% inhibitory concentration (IC50) stood at 29 nM in series [1], 2 nM in series [3] (setting [5]), 73 nM in series [3] (setting [6]) and 1250 nM in series [4].
